The test system of this data set is CHIKV. The format is cell-based, chikungunya virus.

For “Hs_LIP8_1 (sense CTGGACTTTGCTAAAGCAGAA; chemistry not given here)”, the Score_si4 is reported as 0.62.
On the same count and under the same terms, in the case of “Hs_ROCK1_1 (sense ACGGTTAGAACAAGAGGTAAA; chemistry not given here)” it was 0.5.
“s28296 (sense CTTCCTCGGTGGAACACGA; chemistry not given here)” yielded a Score_si2 of 1.22.
With “Hs_UBE2C_8 (GAGCCCTTGTATATTAAATAA; chemistry not given here) [reference compound]”, the Score_si1 is listed as -1.05.
For “s38241 (TCCTTTTCCATGTACCAGA; chemistry not given here)”, the Score_si4 was found to be 0.18.
Take “Hs_FCGRT_2 (AAGGATGTAAATGTGATTCCA; chemistry not given here)”: the Score_si2 worked out at 1.36.
Turning to “Hs_PTBP1_18 (sense GCGCGTGAAGATCCTGTTCAA; chemistry not given here) [reference compound]”, the Score_si4 was -0.53.
As to “Hs_SIN3A_5 (sense GAGCGTGTAAGCAAGCGTCTA; chemistry not given here)”, the Score_si1 is reported as 2.49.
Substance “Hs_FASN_3 (CCGCTACATGGCCCAAGGGAA; chemistry not given here)” had a Score_si1 of 2.39.
The substance “Hs_LRP6_2 (CTGGATTGTTATCCGACTGAA; chemistry not given here)” came in with a Score_si2 of 1.63.
“Hs_PGD_1 (TAGAAGTGTATTCCTAGGAAA; chemistry not given here)” had a Score_si1 of 3.09.
On to “s32097 (ACAGCGCAAGTTCCAGTAT; chemistry not given here)”, for which the Score_si2 came out at 1.75.
On to “Hs_E2F3_5 (TACAGTATTTGCGTTACTTTA; chemistry not given here) [reference compound]”, for which the Score_si2 is -1.78.
Substance “Hs_ZZZ3_1 (CAGCCTGATGGGAACACTAAA; chemistry not given here) [reference compound]” returned a Score_si1 of -2.9.
As for “s37713 (GAACCTCCTTCGGGATAAA; chemistry not given here)”, the Score_si3 came out at 0.52.
Turning to “Hs_SLC6A19_2 (sense CTCGGTGATTGTGTCCATCAT; chemistry not given here)”, the Score_si1 is recorded as 2.5.
Take “s17018 (GGAAATAGGTCTAGTACTA; chemistry not given here)”: the Score_si3 is recorded as 1.2.
On to “s18705 (sense GCTCGTTACCTACATAGTA; chemistry not given here) [reference compound]”, for which the Score_si2 was -0.84.
The substance “Hs_NRD1_3 (CAAGCAATACCGATACATCAA; chemistry not given here)” had a Score_si4 of 0.87.
“s31660 (CTGTCACACTCACTGAAAA; chemistry not given here)” showed a Score_si1 of 1.8.
Turning to “Hs_CLPP_1 (sense CACGATGCAGTACATCCTCAA; chemistry not given here)”, the Score_si4 was determined as 0.97.
Consider “Hs_MGC13138_1 (CTGGCATTTCCCGCTCATTTA; chemistry not given here) [reference compound]”, for which the Score_si1 is reported as -2.19.
As to “s49211 (sense GTTCCTGGGTGTTCACCTA; chemistry not given here)”, the Score_si4 is on record as 0.08.
“Hs_RAD51L3_2 (sense CTCACTCTCTGTAAGCATATA; chemistry not given here)” yielded a Score_si3 of 0.7.
Same read-out and setting: the result for “s24801 (sense CCAAGGTCCTGAGGTCTAA; chemistry not given here)” reads 1.43.
Turning to “s922 (CATTAACATTGTTCGCAAA; chemistry not given here)”, the Score_si4 worked out at 1.81.
Still for that read-out and setting: the result for “s18079 (CAATAGTAAAGGGATATAA; chemistry not given here) [reference compound]” reads -0.28.
The substance “Hs_FLT4_8 (sense CACCGTGTGGGCTGAGTTTAA; chemistry not given here)” registered a Score_si2 of 1.07.
Regarding “s2664 (sense CGTCCATGTTTATCTACAA; chemistry not given here)”, the Score_si4 is on record as 0.12.
“Hs_NRD1_2 (AAGGCTTTCGATTGCCCGGAA; chemistry not given here)”: the Score_si2 is on record as 1.41.
The substance “Hs_FLJ20530_2 (sense TTGACTTATCTTCATCATAAA; chemistry not given here)” had a Score_si1 of 2.95.
Same read-out and setting: in the case of “Hs_GCN1L1_2 (sense CAGGTTCAGCTGGAATGTGAA; chemistry not given here)” it was 2.09.
As for “s25184 (sense CCCATCAACTTCTCCGTGA; chemistry not given here)”, the Score_si4 worked out at 0.53.
With “Hs_BCHE_4 (CAGAACGTTGAACTTAGCTAA; chemistry not given here)”, the Score_si1 is recorded as 0.93.
For the substance “Hs_PPIL2_2 (AAGGAGGAGATCCGCATTGAT; chemistry not given here)”, the Score_si1 is 1.35.
In turn, “Hs_IRAK1_5 (sense CCGGGCAATTCAGTTTCTACA; chemistry not given here)” came in with a Score_si4 of 1.36.
Substance “Hs_CRSP8_1 (sense AACGAGAATGTCTACACAGAA; chemistry not given here) [reference compound]” registered a Score_si1 of -2.6.
Substance “s9666 (CGTGTACTCTGTTTCGACA; chemistry not given here) [reference compound]” displayed a Score_si4 of -0.83.
As to “s5082 (sense CCTCGATAATATAACACGA; chemistry not given here)”, the Score_si4 turned out to be 0.67.
Take “Hs_LOC407835_4 (sense CAGGGAGATCAGCATCTGCAT; chemistry not given here)”: the Score_si2 is 0.79.
“Hs_APPL_3 (TAGGAATAGGATAATGATATA; chemistry not given here) [reference compound]” displayed a Score_si2 of -1.06.
On the same count and under the same terms, the result for “s16047 (GAACCCATATTATTAGTGA; chemistry not given here) [reference compound]” reads -0.72.
Regarding “n268452 (AGCTGGCCATCGAAAGGTA; chemistry not given here)”, the Score_si1 was determined as 0.81.
Same read-out and setting: in the case of “Hs_FLJ11752_1 (sense CTGGATATTACTAGAGTTGTA; chemistry not given here)” it was 2.31.
Take “s31180 (CCATAGATGAGAAGCGGTT; chemistry not given here)”: the Score_si3 stood at 1.93.
For the substance “Hs_TGIF_6 (sense TCCAAGAACTATAAACTTAAA; chemistry not given here)”, the Score_si3 worked out at 1.
On to “s12099 (sense GCTTGTAGGTGATACACCT; chemistry not given here)”, for which the Score_si2 was 1.09.
In turn, “Hs_CUL4A_1 (sense ACCCATATTATTAGTGATAAA; chemistry not given here) [reference compound]” showed a Score_si1 of -2.33.
In turn, “s12243 (sense GCTGGGACAAGACACTGTA; chemistry not given here)” came in with a Score_si3 of 1.87.
Regarding “Hs_ODZ3_2 (CCCAAATTTGATTTAACAGAA; chemistry not given here)”, the Score_si4 is 0.82.
The same measure, in the same setting: in the case of “Hs_TRRAP_1 (AAGATTCGACAGCAAGTTAAA; chemistry not given here)” it was 1.01.
In the case of “Hs_IRAK1_6 (sense TCCCATCGCCATGCAGATCTA; chemistry not given here)”, the Score_si3 is given as 1.57.
Same read-out and setting: the result for “s34678 (GAGTTTAAGATGATGCCTA; chemistry not given here)” reads 0.6.
Take “s15687 (sense CCCGTATCATGATCCACCA; chemistry not given here)”: the Score_si1 came out at 1.56.
In turn, “s13807 (sense GCATCTGAAGACTCAGGCA; chemistry not given here)” gave a Score_si4 of -0.26.
As for “s26119 (sense CATGGATGAGTTTACCCAA; chemistry not given here) [reference compound]”, the Score_si3 was -0.65.
“Hs_RAB3D_1 (sense CAGGCCCTGTTTAGCTGTTTA; chemistry not given here)” came in with a Score_si1 of 1.76.
“Hs_CDC25A_1 (sense AAGGCGCTATTTGGCGCTTCA; chemistry not given here)”: the Score_si2 is 1.56.
With “s11517 (sense GCGAAGTGTTTGTAAATCA; chemistry not given here)”, the Score_si4 turned out to be 1.19.
Same read-out and setting: the result for “s6097 (sense TCAGGACCCTGTACACCCA; chemistry not given here)” reads 0.9.
With “Hs_EEF1A1_4 (CAACGTTACAACGGAAGTAAA; chemistry not given here)”, the Score_si1 turned out to be 2.64.
“s27641 (sense GGGAAACAGTTGGAAGAGA; chemistry not given here)” showed a Score_si3 of 1.64.
The substance “s35400 (ACGCAGAGGCGGGAACAAA; chemistry not given here)” showed a Score_si3 of 0.6.
As to “Hs_BRD8_1 (TGCAATGACATTGCAACGAAA; chemistry not given here)”, the Score_si4 is 0.57.
Same read-out and setting: the result for “s20833 (sense GAATATGACTCTGCAAAGA; chemistry not given here)” reads 0.65.
In turn, “s6098 (sense CCTTTAACGTGGACATGTA; chemistry not given here)” showed a Score_si1 of 1.88.
On the same count and under the same terms, in the case of “Hs_CCDC6_1 (sense ATGGATAATTATCGTATATTA; chemistry not given here) [reference compound]” it was -2.65.
The substance “Hs_GNB2L1_5 (sense TTGGCACACGCTAGAAGTTTA; chemistry not given here)” had a Score_si4 of 1.27.
As to “s25039 (sense CAAATTTCCTGTTAATCGA; chemistry not given here) [reference compound]”, the Score_si3 is -0.41.
For “s16998 (GAAATTCCATGTCATTGTA; chemistry not given here)”, the Score_si4 worked out at 0.65.
In turn, “s992 (GTGTTTTTCCGTAAGCATA; chemistry not given here) [reference compound]” showed a Score_si3 of -0.52.
In turn, “s16633 (CAACCACAATGTTCGTAAA; chemistry not given here)” had a Score_si3 of 1.99.
Same read-out and setting: in the case of “s20631 (sense GGACGGAAGCGAAAATCGA; chemistry not given here)” it was 1.89.

The values are drawn from publication PMC4865845, “A human genome-wide loss-of-function screen identifies effective chikungunya antiviral drugs” (Nature Communications, 2016).
